IC50 data for 15 compounds are collected here from patent US12319672B2, “Alpha-D-galactopyranoside derivatives” (Idorsia Pharmaceuticals Ltd, priority 2019, dated 2025).

pIC50: −log10 of the molar value.

In one assay the target is human Gal-3 (hGal-3) (Homo sapiens (Human), UniProt P17931). Kind of assay: Competitive binding assay: binding of biotinylated hGal-3 to microplate-adsorbed asialofetuin (ASF). The following applies: Activity on hGal-3; mean values of several measurements. The method in brief: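 Compounds diluted in DMSO competed with biotinylated hGal-3 or hGal-1 (300-1000 ng/mL) for binding to plate-adsorbed asialofetuin for 3 h at 4° C. Bound galectin was detected with streptavidin-peroxidase (80 ng/mL, 1 h, 4° C) and ABTS substrate; IC50 reported as mean of several measurements.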
Sequence of human Gal-3 (hGal-3) (P17931 whole entry): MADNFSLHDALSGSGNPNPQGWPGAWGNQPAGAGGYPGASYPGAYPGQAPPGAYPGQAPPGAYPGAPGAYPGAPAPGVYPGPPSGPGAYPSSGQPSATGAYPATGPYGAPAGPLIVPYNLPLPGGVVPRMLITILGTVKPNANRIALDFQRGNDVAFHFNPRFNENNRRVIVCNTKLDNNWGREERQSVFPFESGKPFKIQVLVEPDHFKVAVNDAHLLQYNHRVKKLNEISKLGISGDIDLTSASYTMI

For assay [1], the target named is human Gal-1 (hGal-1) (Homo sapiens, UniProt P09382). In words: Competitive binding assay: binding of biotinylated hGal-1 to microplate-adsorbed asialofetuin (ASF). The following applies: Activities on hGal-1; mean values of several measurements. The method in brief:
(§1)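 Biotin-hGal-3/hGal-1 300-1000 ng/mL + cpd (DMSO dilutions) on ASF-coated plate, 3 h 4° C; wash; SA-HRP 80 ng/mL 1 h 4° C; wash; ABTS. IC50 = mean of several runs. hGal-1 preferably Cys→Ser (all six) mutant.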

Assay [2] concerns the target human Gal-1 (hGal-1). Described as above. Conditions: Activities on hGal-1; mean values of several measurements. The method in brief:
as §1

Sequence of human Gal-1 (hGal-1) (P09382 2-135 limits assumed): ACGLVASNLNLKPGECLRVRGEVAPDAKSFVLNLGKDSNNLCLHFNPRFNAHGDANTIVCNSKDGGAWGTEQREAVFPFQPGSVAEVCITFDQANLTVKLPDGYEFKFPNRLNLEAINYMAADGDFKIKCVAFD
Sequence of human Gal-1 (hGal-1) (Homo sapiens, UniProt P09382) (P09382 2-135 limits assumed): as above

In the case of `CC(C)(C)OC(=O)N1CCC(c2cc(C[C@H]3O[C@H](CO)[C@H](O)[C@H](n4cc(-c5cc(F)c(F)c(F)c5)nn4)[C@H]3OCC(F)F)no2)CC1` [Example 2.25, tert-butyl 4-(3-(((2R,3R,4S,5R,6R)-3-(2,2-difluoroethoxy)-5-hydroxy-6-(hydroxymethyl)-4-(4-(3,4,5-trifluorophenyl)-1H-1,2,3-triazol-1-yl)tetrahydro-2H-pyran-2-yl)methyl)issoxazole-5-yl)piperidine-1-carboxylate], the pIC50 (commonly −log10 of the IC50, conventionally taken in molar units) at human Gal-3 (hGal-3) is 6.77; at human Gal-1 (hGal-1) [1], 5.89.

`CO[C@@H]1[C@@H](n2cc(-c3cc(F)c(F)c(F)c3)nn2)[C@@H](O)[C@@H](CO)O[C@@H]1C[C@@H]1CN(C2CCN(C(=O)OC(C)(C)C)CC2)C(=O)O1` [Example 5.15, tert-butyl 4-((R)-5-(((2R,3R,4S,5R,6R)-5-hydroxy-6-(hydroxymethyl)-3-methoxy-4-(4-(3,4,5-trifluorophenyl)-1H-1,2,3-triazol-1-yl)tetrahydro-2H-pyran-2-yl)methyl)-2-oxooxazolidin-3-yl)piperidine-1-carboxylate]: the pIC50 on human Gal-3 (hGal-3) was 7.30; on human Gal-1 (hGal-1) [2] it was 6.68.

Regarding `CO[C@@H]1[C@@H](n2cc(-c3cc(F)c(F)c(F)c3)nn2)[C@@H](O)[C@@H](CO)O[C@@H]1Cc1cc(C2CCC(F)(F)CC2)sn1` [Example 6.01, (2R,3R,4S,5R,6R)-6-((5-(4,4-difluorocyclohexyl)isothiazol-3-yl)methyl)-2-(hydroxymethyl)-5-methoxy-4-(4-(3,4,5-trifluorophenyl)-1H-1,2,3-triazol-1-yl)tetrahydro-2H-pyran-3-ol], the figures for the pIC50 at human Gal-3 (hGal-3) and on human Gal-1 (hGal-1) [2] were 6.25 and 5.20, respectively.

As to `CO[C@@H]1[C@@H](n2cc(-c3cc(F)c(F)c(F)c3)nn2)[C@@H](O)[C@@H](CO)O[C@@H]1Cc1cc(C2CCN(C(=O)OC(C)(C)C)CC2)sn1` [Example 6.02, tert-butyl 4-(3-(((2R,3R,4S,5R,6R)-5-hydroxy-6-(hydroxymethyl)-3-methoxy-4-(4-(3,4,5-trifluorophenyl)-1H-1,2,3-triazol-1-yl)tetrahydro-2H-pyran-2-yl)methyl)isothiazol-5-yl)piperidine-1-carboxylate], the pIC50 on human Gal-3 (hGal-3) is 6.96; on human Gal-1 (hGal-1) [2] it was 5.71.

Regarding `CO[C@@H]1[C@@H](n2cc(-c3cc(F)c(F)c(F)c3)nn2)[C@@H](O)[C@@H](CO)O[C@@H]1Cc1cc(C2CCNCC2)sn1` [Example 6.03, (2R,3R,4S,5R,6R)-2-(hydroxymethyl)-5-methoxy-6-((5-(piperidin-4-yl)isothiazol-3-yl)methyl)-4-(4-(3,4,5-trifluorophenyl)-1H-1,2,3-triazol-1-yl)tetrahydro-2H-pyran-3-ol], the pIC50 on human Gal-3 (hGal-3) was 6.66; at human Gal-1 (hGal-1) [2], 5.38.

Regarding `CO[C@@H]1[C@@H](n2cc(-c3cc(F)c(F)c(F)c3)nn2)[C@@H](O)[C@@H](CO)O[C@@H]1Cn1cnc(C(C)(C)C)c1` [Example 6.04, (2R,3R,4S,5R,6R)-6-((4-(tert-butyl)-1H-imidazol-1-yl)methyl)-2-(hydroxymethyl)-5-methoxy-4-(4-(3,4,5-trifluorophenyl)-1H-1,2,3-triazol-1-yl)tetrahydro-2H-pyran-3-ol], the negative-log IC50 (pIC50) on human Gal-3 (hGal-3) is 6.74; on human Gal-1 (hGal-1) [2] it was 5.62.

Consider `CO[C@@H]1[C@@H](n2cc(-c3cc(F)c(F)c(F)c3)nn2)[C@@H](O)[C@@H](CO)O[C@@H]1Cc1cn(-c2ccccc2)c(=O)o1` [Example 6.05, 5-(((2R,3R,4S,5R,6R)-5-hydroxy-6-(hydroxymethyl)-3-methoxy-4-(4-(3,4,5-trifluorophenyl)-1H-1,2,3-triazol-1-yl)tetrahydro-2H-pyran-2-yl)methyl)-3-phenyloxazol-2(3H)-one], for which the pIC50 is 6.60 at human Gal-3 (hGal-3) and 5.09 on human Gal-1 (hGal-1) [2].

In the case of `CO[C@@H]1[C@@H](n2cc(-c3ccc(C)c(F)c3F)nn2)[C@@H](O)[C@@H](CO)O[C@@H]1CN1CC(=O)N(C2CCCCC2)C1` [Example 6.06, 3-cyclohexyl-1-(((2R,3R,4S,5R,6R)-4-(4-(2,3-difluoro-4-methylphenyl)-1H-1,2,3-triazol-1-yl)-5-hydroxy-6-(hydroxymethyl)-3-methoxytetrahydro-2H-pyran-2-yl)methyl)imidazolidin-4-one], the pIC50 at human Gal-3 (hGal-3) is 7.38; at human Gal-1 (hGal-1) [2], 5.79.

With `CO[C@@H]1[C@@H](n2cc(-c3cc(F)c(F)c(F)c3)nn2)[C@@H](O)[C@@H](CO)O[C@@H]1CN1CN(C2CCN(C(C)=O)CC2)CC1=O` [Example 6.07, 1-(1-acetylpiperidin-4-yl)-3-(((2R,3R,4S,5R,6R)-5-hydroxy-6-(hydroxymethyl)-3-methoxy-4-(4-(3,4,5-trifluorophenyl)-1H-1,2,3-triazol-1-yl)tetrahydro-2H-pyran-2-yl)methyl)imidazolidin-4-one], the pIC50 at human Gal-3 (hGal-3) was 6.82; at human Gal-1 (hGal-1) [2] it was 6.04.

With `CO[C@@H]1[C@@H](n2cc(-c3cc(F)c(F)c(F)c3)nn2)[C@@H](O)[C@@H](CO)O[C@@H]1CN1CC(=O)N(C2CCN(C(C)=O)CC2)C1` [Example 6.08, 3-(1-acetylpiperidin-4-yl)-1-(((2R,3R,4S,5R,6R)-5-hydroxy-6-(hydroxymethyl)-3-methoxy-4-(4-(3,4,5-trifluorophenyl)-1H-1,2,3-triazol-1-yl)tetrahydro-2H-pyran-2-yl)methyl)imidazolidin-4-one], the pIC50 on human Gal-3 (hGal-3) was 7.66; at human Gal-1 (hGal-1) [2], 7.14.

As for `CO[C@@H]1[C@@H](n2cc(-c3cc(F)c(F)c(F)c3)nn2)[C@@H](O)[C@@H](CO)O[C@@H]1CN1CC(=O)N(C2CCCCC2)C1` [Example 6.09, 3-cyclohexyl-1-(((2R,3R,4S,5R,6R)-5-hydroxy-6-(hydroxymethyl)-3-methoxy-4-(4-(3,4,5-trifluorophenyl)-1H-1,2,3-triazol-1-yl)tetrahydro-2H-pyran-2-yl)methyl)imidazolidin-4-one], the pIC50 at human Gal-3 (hGal-3) is 7.23; on human Gal-1 (hGal-1) [2], 5.17.

On to `CO[C@@H]1[C@@H](n2cc(-c3cc(F)c(F)c(F)c3)nn2)[C@@H](O)[C@@H](CO)O[C@@H]1CN1CC(=O)N(C2CCOCC2)C1` [Example 6.10, 1-(((2R,3R,4S,5R,6R)-5-hydroxy-6-(hydroxymethyl)-3-methoxy-4-(4-(3,4,5-trifluorophenyl)-1H-1,2,3-triazol-1-yl)tetrahydro-2H-pyran-2-yl)methyl)-3-(tetrahydro-2H-pyran-4-yl)imidazolidin-4-one], for which the pIC50 on human Gal-3 (hGal-3) is 7.43; at human Gal-1 (hGal-1) [2] it was 6.05.

For `CCOC(=O)N1CCC(N2CN(C[C@H]3O[C@H](CO)[C@H](O)[C@H](n4cc(-c5cc(F)c(F)c(F)c5)nn4)[C@H]3OC)CC2=O)CC1` [Example 6.11, ethyl 4-(3-(((2R,3R,4S,5R,6R)-5-hydroxy-6-(hydroxymethyl)-3-methoxy-4-(4-(3,4,5-trifluorophenyl)-1H-1,2,3-triazol-1-yl)tetrahydro-2H-pyran-2-yl)methyl)-5-oxoimidazolidin-1-yl)piperidine-1-carboxylate], the pIC50 was 7.59 at human Gal-3 (hGal-3) and 7.04 at human Gal-1 (hGal-1) [2].

“(2R,3R,4S,5R,6R)-4-(4-(2,3-difluoro-4-methylphenyl)-1H-1,2,3-triazol-1-yl)-6-((3-(1-hydroxycyclobutyl)isoxazol-5-yl)methyl)-2-(hydroxymethyl)-5-methoxytetrahydro-2H-pyran-3-ol [Example 2.57]”: the pIC50 is 7.09 at human Gal-3 (hGal-3) and 5.84 at human Gal-1 (hGal-1) [2].

Turning to “(2R,3R,4S,5R,6R)-4-(4-(4-chloro-2,3-difluorophenyl)-1H-1,2,3-triazol-1-yl)-6-((3-(1-hydroxycyclobutyl)isoxazol-5-yl)methyl)-2-(hydroxymethyl)-5-methoxytetrahydro-2H-pyran-3-ol [Example 2.58]”, the pIC50 at human Gal-3 (hGal-3) was 7.22; on human Gal-1 (hGal-1) [2] it was 5.84.
